“Also recorded” adds a separate entry of the source. Where a SMILES comes first, the peptide text is derived from it. [ ]: non-standard residue; d: D form. Hyp = O=C(O)[C@@H]1C[C@@H](O)CN1
Tests used:
[1] = Solubility of peptides in water; assay type: physicochemical
[2] = Secondary structure estimation from circular dichroism in TFE, least square linear method; assay type: physicochemical; conditions: TFE at 25° C., 1 wt.%
Experimental: Circular Dichroism (CD) spectroscopy. For secondary structure characterization, peptide solutions of 1% by weight (molar concentration is included in Table 2) were prepared in 2,2,2-trifluoroethanol (TFE, Sigma Aldrich, St. Louis, MO). CD spectra acquisition was performed in a CD Jasco J-810 spectropolarimeter (Jasco Inc., Easton, MD) using a 0.01 mm cuvette. Data were collected at room temperature from 180 to 250 nm at a speed of 50 nm/min, with a 0.1 nm data pitch and the spectra were averaged over 5 scans. To study the hydrogelation of O5, 1% by weight peptide solutions were made in 149 mM sucrose solution in 0.5× Hank's Balanced Salt Solution (HBSS, Life Technologies) and analyzed as previously described.
To estimate the secondary structure of O peptide series, data fitting using the least square linear method was performed in MATLAB (Mathworks, Natick, MA). (Hyp)6, O1(SL)6O1 and K2(SL)6K2 were used as basis spectra for polyproline type II, β-sheet and α-helix, respectively (FIG. 7).

[3] = Hydrogel formation (inverted-vial test, pH, ionic strength, buffers); assay type: physicochemical; conditions: for hydrogel formation at acidic, neutral and basic pH: 1% by weight, pH adjusted with HCl or NaOH, inverted-vial test / CD
Experimental: Hydrogel Formation. Peptide solutions of O5 were prepared at 1% by weight (4.2 mM) in 149 mM sucrose and 0.5×HBSS. This buffer system was chosen to be consistent with prior MDP experiments and find optimum gelling conditions for future in vivo and in vitro work. Peptide solutions were sonicated using a Microson Ultrasonic Cell Disruptor with a 2 mm microprobe. The instrument frequency was 22.5 kHz and a power output up to 10 watts (RMS) was used. Solutions were sonicated at room temperature for 1 or 10 cycles, where each cycle consisted of 10 pulses and 1 min relaxation time between cycles. For the study of hydrogelation of O5, K2 and E2 at different pH values and ionic strength, 1% by weight peptide solutions were prepared in deionized water, PBS, or HBSS. pH was adjusted using HCl or NaOH 0.1 M solutions.

[4] = Oscillatory rheology of 1 wt.% hydrogel; assay type: physicochemical
Experimental: Oscillatory Rheology. Rheological properties of O5 hydrogel were analyzed by oscillatory rheology using a TA Instruments AR-G2 rheometer (TA Instruments, New Castle, DE). Hydrogels were prepared 24 h before the analysis as described above. 150 μL of 1% by weight peptide hydrogels were transferred from a cut syringe onto the rheometer stage equipped with a 12 mm stainless-steel parallel plate set to a 1000 μm gap height. The following program was used to monitor the storage modulus (G′) and loss modulus (G″) under various conditions as has been previously published (Li et al., 2017). Strain sweep analysis was performed using an applied strain of 0.01%-200% at a frequency of 1 rad/s. Frequency sweep analysis was performed under 1% strain at 0.1-100 rad/s. Shear recovery analysis was performed by subjecting the peptide sample to 1% strain for 20 min, then 200% for 1 min, and finally 1% for 20 min, allowing for disruption of the hydrogel and monitoring of G′ and G″ recovery.

[5] = 3D culture cytocompatibility, Calcein AM / Ethidium homodimer-1 viability and cell morphology; assay type: cell-based; conditions: mouse; day 1 after encapsulation, 1 wt.% hydrogel; read-out: percentage of viable cells
Experimental: (§1) Cytocompatibility and cell viability studies. All cell culture materials, not otherwise specified, were purchased from Gibco, Life Technologies. NIH-3T3 fibroblast cells were cultured in Dulbecco's Modified Eagle Medium (DMEM) supplemented with 10% Fetal Bovine Serum (FBS), 2% L-glutamine (200 mM), 1% sodium pyruvate (100 mM), and 1% pen-strep solution (5000 units/mL of penicillin and 5 mg/mL of streptomycin, Sigma-Aldrich, St. Louis, MO). Cells were maintained at 37° C. and 5% CO2 with humidity and split when reaching 80%-90% confluency by treatment with 0.25% trypsin-EDTA and neutralization with complete media. Cells were centrifuged for 6 min at 1600 rpm, then the cell pellet was dispersed in HBSS, counted and adjusted to the required concentration. 3D cell culture in K2 hydrogel was achieved by mixing a 2% by weight peptide stock solution in 298 mM sucrose with a cell suspension of 2×10^6 cells/mL in HBSS. The final concentration was 1% by weight K2 hydrogel in 149 mM sucrose and 0.5×HBSS with 1×10^6 cells/mL. For O5 peptide, hydrogel was prepared by sonication using only 90% of the required 149 mM sucrose-0.5×HBSS to obtain a 1% by weight concentration, the remaining 10% was added as a cell suspension, and mixed by pipetting into the gel to obtain a final concentration of 1×10^6 cells/mL evenly distributed though the volume of the hydrogel. 70 μL of seeded hydrogels were cultured in a Lab-Tek 16-well glass chamber ([…], Thermo Fisher, Rochester, NY) with 200 μL of medium and fed every 2 days by replacing 100 μL with fresh media. Cell viability was analyzed using a live/dead viability kit (Invitrogen, Thermo Fisher, Carlsbad, CA). At specific time points, the medium was removed, and gels were rinsed with 1×PBS, then 100 μL of staining solution containing 2 μM Calcein AM and 4 μM Ethidium homodimer-1 in DPBS were added. Cells were incubated from 15 to 30 min and imaged using a Nikon A1 Rsi fluorescent confocal microscope (Nikon Instruments, Tokyo, Japan). Three z-stack images of 100 μm deep per sample were taken at 20× using a 488 nm green channel and 561 nm red channel lasers. Images were processed with NIS Element and live/dead cell counting was performed on Imaris 3D/4D Image Processing software (Bitplane, Concord, MA).
(§2) To evaluate the cell morphology, hydrogels were rinsed with PBS and fixed with 10% buffered formalin for 30 min Cells were treated with 0.5% Triton X for 10 min and 100 mM glycine for 10 min, followed by 10% Bovine Serum Albumin (BSA) in HBSS block solution. Then cells were stained for filamentous actin with Alexa Fluor® 488-Phalloidin and for the nuclei with ProLong® Gold Antifade DAPI mounting media. Cell in the hydrogels were analyzed by confocal microscopy using a 40× water objective and processed as described.

NIH-3T3 fibroblasts = assay: as above; assay type: cell-based; conditions: for percentage of viable cells: day 3 compared with day 1; for cytotoxicity / viability over the culture: days 1 to 5, 1 wt.% hydrogel; for cell proliferation / viable cell density in the gel: up to day 5
Experimental: as §1, §2

[6] = In vivo host response, subcutaneous injection model; design: species or system mice
Experimental: In vivo compatibility studies. All experimental procedures were approved by the Rice University Institutional Animal Care and Use Committee (IACUC) and performed according to the Animal Welfare Act and NIH guidelines. Female C57BL/6 mice from 8 to 12 weeks were purchased from Charles River (Wilmington, MA). Mice were injected with 4 implants of 100 μL 1% by weight O5 hydrogel in the dorsal subcutaneous space using a 26-gauge needle. At days 3, 7, and 14 mice were euthanized, and implants were extracted, fixed with 10% neutral buffered formalin and processed into paraffin blocks. Tissue was sectioned at 5 μm thickness and stained with hematoxylin and eosin, and Masson's trichome under standard procedures. For fluorescent immunostaining, tissue sections were deparaffinized, hydrated and antigens were retrieved by boiling in sodium citrate buffer (10 mM sodium citrate, 0.05% Tween 20 at pH 6.0). Tissues were permeabilized with 0.5% Triton X and blocked with 1% BSA in PBS for 30 min. Tissues were incubated overnight at 4° C. with rat anti-Mouse F4/80 monoclonal antibody (1:50, clone BM8, eBioscience™, Cat #14-4801-82). Then, samples were incubated for 1 hour with goat anti-rat AlexaFluor® 568 (1:500, Invitrogen), followed by mounting with ProLong® Gold Antifade reagent with DAPI. Tissue slides were analyzed by confocal fluorescent microscopy.

Structure (SMILES)	% PPII [2] [%]	% α-helix [2] [%]	% β-sheet [2] [%]	Predominant Structure [2]	hydrogel formation at acidic, neutral and basic pH [3]	viability at 24 h, 1 % by weight [5] [%]	percentage of viable cells (NIH-3T3 fibroblasts)	cytotoxicity / viability over the culture (NIH-3T3 fibroblasts)	cell proliferation / viable cell density in the gel (NIH-3T3 fibroblasts)	other results
CC(=O)N1C[C@H](O)C[C@H]1C(=O)N1C[C@H](O)C[C@H]1C(=O)N1C[C@H](O)C[C@H]1C(=O)N[C@@H](CO)C(=O)N[C@@H](CC(C)C)C(=O)N[C@@H](CO)C(=O)N[C@@H](CC(C)C)C(=O)N[C@@H](CO)C(=O)N[C@@H](CC(C)C)C(=O)N[C@@H](CO)C(=O)N[C@@H](CC(C)C)C(=O)N[C@@H](CO)C(=O)N[C@@H](CC(C)C)C(=O)N[C@@H](CO)C(=O)N[C@@H](CC(C)C)C(=O)N1C[C@H](O)C[C@H]1C(=O)N1C[C@H](O)C[C@H]1C(=O)N1C[C@H](O)C[C@H]1C(N)=O [Peptide O3, Ac-OOOSLSLSLSLSLSLOOO-CONH2] (Ac-[Hyp][Hyp][Hyp]SLSLSLSLSLSL[Hyp][Hyp][Hyp]-NH2)	38.4	36.4	25.2	PPII/α-helix						solubility [1]: < 500 µg/mL
CC(=O)N1C[C@H](O)C[C@H]1C(=O)N1C[C@H](O)C[C@H]1C(=O)N1C[C@H](O)C[C@H]1C(=O)N1C[C@H](O)C[C@H]1C(=O)N1C[C@H](O)C[C@H]1C(=O)N[C@@H](CO)C(=O)N[C@@H](CC(C)C)C(=O)N[C@@H](CO)C(=O)N[C@@H](CC(C)C)C(=O)N[C@@H](CO)C(=O)N[C@@H](CC(C)C)C(=O)N[C@@H](CO)C(=O)N[C@@H](CC(C)C)C(=O)N[C@@H](CO)C(=O)N[C@@H](CC(C)C)C(=O)N[C@@H](CO)C(=O)N[C@@H](CC(C)C)C(=O)N1C[C@H](O)C[C@H]1C(=O)N1C[C@H](O)C[C@H]1C(=O)N1C[C@H](O)C[C@H]1C(=O)N1C[C@H](O)C[C@H]1C(=O)N1C[C@H](O)C[C@H]1C(N)=O [Peptide O5, Ac-OOOOOSLSLSLSLSLSLOOOOO-CONH2] (Ac-[Hyp][Hyp][Hyp][Hyp][Hyp]SLSLSLSLSLSL[Hyp][Hyp][Hyp][Hyp][Hyp]-NH2)	50	40.5	9.5	PPII	remains a hydrogel at acidic, neutral and basic pH; also recorded: remains a hydrogel at all pH	~70	relatively unchanged	good initial viability, which remains constant throughout the experiment	not observed to proliferate	state of the peptide at 10 mg/mL ([3]; 10 mg/mL): forms a hydrogel; hydrogelation in cell culture media ([3]; 1% by weight in 149 mM sucrose and 0.5×HBSS, ultrasonication): forms a self-supportive hydrogel; pH range over which peptide remains a hydrogel ([3]; also in deionized water, PBS and HBSS): 3-11; loss modulus (G″) [4]: 1.7±0.5 Pa; storage modulus (G′) [4]: 23.3±8.7 Pa; cell spreading and adhesion to the material (NIH-3T3 fibroblasts; 5 days encapsulated, actin staining): do not spread and adhere to the material; cell recovery after extraction from the hydrogel (NIH-3T3 fibroblasts; after 5 days of culture): recover, grow, and proliferate; inflammatory response ([6]; compared to K2 hydrogel): weaker inflammatory response; implant degradation ([6]; day 14): almost completely degraded; collagen deposition / remodeling ([6]; day 14, Masson's trichrome): natural collagen is observed; fibrous encapsulation ([6]; subcutaneous implant, in contrast with PEG): not fibrously encapsulated
CC(=O)N[C@@H](CCCCN)C(=O)N[C@@H](CCCCN)C(=O)N[C@@H](CO)C(=O)N[C@@H](CC(C)C)C(=O)N[C@@H](CO)C(=O)N[C@@H](CC(C)C)C(=O)N[C@@H](CO)C(=O)N[C@@H](CC(C)C)C(=O)N[C@@H](CO)C(=O)N[C@@H](CC(C)C)C(=O)N[C@@H](CO)C(=O)N[C@@H](CC(C)C)C(=O)N[C@@H](CO)C(=O)N[C@@H](CC(C)C)C(=O)N[C@@H](CCCCN)C(=O)N[C@@H](CCCCN)C(N)=O [Peptide K2, Ac-KKSLSLSLSLSLSLKK-CONH2, reference compound]					dependent on pH; also recorded: forms a gel at pH 11	~20	relatively unchanged	somewhat cytotoxic during the first days of cell culture	by day 5 cell density is significantly higher than days 1 and 3	hydrogel formation at acidic, neutral and basic pH ([3]; listed as K2(SL)6K2): gels only forming at neutral pH or at elevated ionic strength

— US12383653B2, “Neutral multidomain peptide hydrogels and uses thereof” (William Marsh Rice University, priority 2018, dated 2025)
